Test results from paper PMC7359024, “Synthesis, Structure–Activity Relationship, and Mechanistic Studies of Aminoquinazolinones Displaying Antimycobacterial Activity” (ACS Infectious Diseases, 2020).
Values after ≈ are worked out from the molar mass of the structure shown. Read-outs that look alike come from different tables or passages of the source.

Columns and labels:
[1] = format: in vitro ADME; conditions: for Metabolic Stability H (% Rem.): human liver microsomes; for Metabolic Stability M (% Rem.): mouse liver microsomes; for Metabolic Stability R (% Rem.): rat liver microsomes
Method: 3.2. Microsomal stability
The metabolic stability assay was performed in duplicate in a 96-well micro titre plate. The test compounds (0.1 μM) were incubated individually in mouse, rat and pooled human liver microsomes ((final protein concentration of 0.4 mg/mL; XenoTech, Lenexa, KS ), suspended in 0.1M phosphate buffer (pH 7.4) at 37 °C for predetermined time points, in the presence and absence of the cofactor NADPH (1 mM). Reactions were quenched by adding ice cold acetonitrile containing internal standard (carbamazepine, 0.0236 µg/mL). T he samples were centrifuged and test compound in the supernatant were analysed by means of LC -MS/MS (Agilent Rapid Resolution HPLC, AB SCIEX 4500 MS ). The relative loss of parent compound over time was monitored and plots (concentration vs. time) were prepared per compound to determine the first order rate constant for compound depletion. This was in turn used to calculate half-life, in vitro intrinsic clearance and in vivo hepatic extraction ratio. Metabolite searches were not conducted during the metabolic stability assay. 5

Mtb H37Rv strain = assay: MIC90 determination in GASTE-Fe media (broth microdilution); format: cell-based, Mycobacterium tuberculosis; conditions: Mtb H37Rv, replicating conditions, GASTE-Fe media, read 14 days after incubation, read-out: MIC90 GASTE-Fe
in vitro = conditions: Chinese hamster
physchem = format: physicochemical; conditions: for solubility: kinetic solubility, pH 7.4, HPLC method
Method: The kinetic solubility assay was performed using a miniaturised shake flask method. 10 mM stock solutions of each of the test compounds were used to prepare calibration standards (10-220μM) in DMSO. The same 10mM stock solutions were accurately dispensed in duplicate into 96-well plates and the DMSO dried down (MiVac GeneVac, 90 min, 37 °C). Thereafter, the samples were reconstituted (200 µM) in phosphate buffered saline (pH 7.4) and shaken (20 hours, 25 °C). The solutions were filtered and analysed by means of HPLC -DAD (Agilent 1200 Rapid Resolution HPLC with a diode array detector). […]

[2] = Mycobacterium tuberculosis, H37RV, 336 h

Row | Structure (SMILES) | Metabolic Stability H (% Rem.) [1] | MIC90 (Mtb H37Rv strain) [µM] | MIC90 (Mtb H37Rv strain; [2]) [µM] | IC50 (in vitro) [µM] | solubility (physchem; 25 °C, pH 7.4, aqueous buffer) [µM] | Metabolic Stability M (% Rem.) [1] [% Rem.] | Metabolic Stability R (% Rem.) [1] [% Rem.] | solubility (physchem) [µM] | fold improvement in solubility (physchem; pH 7.4, relative to comparator analogue) [fold]
1 | Cc1cncc(-c2ccc3nc(N)n(-c4ccc(C(F)(F)F)cc4)c(=O)c3c2)c1 [compound 23] | 87/-/- % Rem. | 2.5 (≈ 0.991 µg/mL) | > 2 | > 100 | < 5 |  |  |  | 
2 | C[S+]([O-])c1cccc(-c2ccc3c(=O)n(-c4ccc(C(F)(F)F)cc4)c(N)nc3c2)c1 (stereo not shown) [compound 31] | 98 % Rem. |  | 1.32 (≈ 0.585 µg/mL) | > 50 | < 5 | 78 | 73 |  | 
3 | Nc1nc2ccc(-c3cccnc3)cc2c(=O)n1-c1ccc(C(F)(F)F)cc1 [compound 22] | 68/-/- % Rem. |  | 0.625 (≈ 0.239 µg/mL) | > 100 | 20 (≈ 7.65 µg/mL) |  |  |  | 
4 | Cc1ccc(S(C)(=O)=O)cc1-c1ccc2nc(N)n(-c3ccc(C(F)(F)F)cc3)c(=O)c2c1 [compound 7] | 65 % Rem. |  | 4.22 (≈ 2 µg/mL) | > 100 | 53.3 (≈ 25.2 µg/mL) | 90 | 86 | 53 (≈ 25.1 µg/mL) | 10
5 | CN(C)CCNC(=O)c1cccc(-c2ccc3nc(N)n(-c4ccc(C(F)(F)F)cc4)c(=O)c3c2)c1 [compound 13] | 82 % Rem. |  | 0.82 (≈ 0.406 µg/mL) | > 50 | 168 (≈ 83.2 µg/mL) | 56 | 40 |  | 
6 | Nc1nc2cc(-c3cccc(C(F)(F)F)c3)ccc2c(=O)n1-c1ccc(C(F)(F)F)cc1 [compound 32] | 95 % Rem. |  | 0.8 (≈ 0.359 µg/mL) | > 50 | < 5 | 82 | 89 |  | 
7 | Nc1nc2ccc(-c3cccc(C(=O)NCCO)c3)cc2c(=O)n1-c1ccc(C(F)(F)F)cc1 [compound 14] | 81 % Rem. |  | 1.03 (≈ 0.482 µg/mL) | > 50 | 192 (≈ 89.9 µg/mL) | 90 | 83 | 193 (≈ 90.4 µg/mL) | 
8 | CN(C)C(=O)c1cccc(-c2ccc3nc(N)n(-c4ccc(C(F)(F)F)cc4)c(=O)c3c2)c1 [compound 10] | 85 % Rem. |  | 2.15 (≈ 0.973 µg/mL) | 0.64 | 46 (≈ 20.8 µg/mL) | 89 | 86 |  | 
9 | NC(=O)c1cccc(-c2ccc3nc(N)n(-c4ccc(C(F)(F)F)cc4)c(=O)c3c2)c1 [compound 9] | 97/-/- % Rem. |  | < 0.244 | > 100 | < 5 |  |  |  | 
